{"source": "patent US20080249136A1", "about": "“Antimicrobial Composition and Method” (priority 2005, published 2008)", "key": {"[1]": {"test_system": "Pseudomonas aeruginosa ATCC #10145", "experiment": "Efficacy (log kill) against Pseudomonas aeruginosa, 96-well assay block", "format": "cell-based", "procedure": "(§1) The cationic polymers are pH adjusted in the range of 6-7.5. It should be noted that the Ecopol polymers require an acidic environment for complete dissolution. Once the polymer is dissolved, NaOH can be used to bring the pH to the desired range.\n(§2) The efficacy of the antimicrobial combinations against Staphylococcus aureus ATCC #6538 and Pseudomonas aeruginosa ATCC #10145 is measured. Testing is done in 96-well 1.5 ml polypropylene assay blocks using 96-well polypropylene sealing mats for covering the samples during incubation. The individual wells in the 96-well assay block are identified as follows: 12 columns numbered 1-12 across the top row of wells on the block, and 8 rows lettered A-H on the first column of the block. Columns 1 and 2 are reserved to test the activity of the biocide in buffer (pH 7.2) in the absence of the cationic polymer. Columns 11 and 12 are always reserved as control, to verify growth of the microorganism in the absence of the biocide. The preparation of the assay blocks involves the following steps in chronological order:\n(§3) 1. Preparation of the biocide solution in an appropriate solvent at a concentration equal to 10 times the final concentration desired in row A; 2. Addition of predetermined amount of the stock biocide solution to each well in row A; 3. Addition of a predetermined amount of the solvent to rows B-H and wells 11A and 12A; 4. Serial dilution of the biocide, by transferring a predetermined amount of the solution from row A to row B, mixing, and repeating the transfer down all the rows. After the mixing step in row H, the transferring amount is taken out and disposed of; 5. Inoculation of the buffer and polymer solutions with the test organism. For bacteria, a 24-hour culture is used. Following the incubation period, the organism concentration in the medium is determined by reading the OD at 620 nm. This culture is used to inoculate the buffer and the polymer solution to a bacterial concentration of 1E6 cfu/ml. Fungal challenges are performed with fungal spores isolated from inoculated SDA slants. The spores are collected by swiping the slant with a sterile cotton swab and re-suspended in tryptic soy broth. Tween 80 is added to aid in spore separation and the suspension was homogenized. The spore concentration is obtained by use of a hemacytometer. This suspension is used to inoculate the buffer and the polymeric solutions to a spore concentration of 3-5E6 cfu/ml; 6. Addition of the inoculated buffer or polymer solution to each well. 7. Thorough mixing of the blends in each well; 8. Sampling for the time 0, 24 h, 48 h and 7 days reading is accomplished using a 96-well 300 μl polystyrene microplate. Tryptic Soy broth (TSB) is used for the bacterial studies and Malt (YM) broth buffered at pH 7.4 for fungal studies; 9. The microplates are incubated at 35° C. for bacteria and 30° C. for fungus, until the control samples show adequate growth; and 10. Data is recorded as the log reduction in microorganism concentration relative to the inoculum."}, "[2]": {"test_system": "Staphylococcus aureus ATCC #6538", "experiment": "Efficacy (log kill) against Staphylococcus aureus, 96-well assay block", "format": "cell-based", "procedure": "as §1, §2, §3"}}}
{"smiles": "Cc1ccc(S(=O)(=O)C(I)I)cc1", "note": "[DIMTS, diiodomethyl-para-tolylsulfone]", "values": [{"measurement": "Log kill 24 h", "setting": "[1]; Active Conc. 414 ppm", "result": 0, "unit": "log"}, {"measurement": "Log kill 48 h", "setting": "[1]; Active Conc. 414 ppm", "result": 1, "unit": "log"}, {"measurement": "Log kill 7 days", "setting": "[1]; Active Conc. 414 ppm", "result": 2, "unit": "log"}, {"measurement": "Log kill t0", "setting": "[1]; Active Conc. 414 ppm", "result": 0, "unit": "log"}, {"measurement": "Log kill 24 h", "setting": "[1]; Active Conc. 2000 ppm", "result": 1, "unit": "log"}, {"measurement": "Log kill 48 h", "setting": "[1]; Active Conc. 2000 ppm", "result": 1, "unit": "log"}, {"measurement": "Log kill 7 days", "setting": "[1]; Active Conc. 2000 ppm", "result": 2, "unit": "log"}, {"measurement": "Log kill t0", "setting": "[1]; Active Conc. 2000 ppm", "result": 0, "unit": "log"}, {"measurement": "Log kill 24 h", "setting": "[2]; Active Conc. 189.7 ppm", "result": 0, "unit": "log"}, {"measurement": "Log kill 48 h", "setting": "[2]; Active Conc. 189.7 ppm", "result": 0, "unit": "log"}, {"measurement": "Log kill 7 days", "setting": "[2]; Active Conc. 189.7 ppm", "result": 0, "unit": "log"}, {"measurement": "Log kill t0", "setting": "[2]; Active Conc. 189.7 ppm", "result": 0, "unit": "log"}, {"measurement": "Log kill 24 h", "setting": "[2]; Active Conc. 265.6 ppm", "result": 0, "unit": "log"}, {"measurement": "Log kill 48 h", "setting": "[2]; Active Conc. 265.6 ppm", "result": 0, "unit": "log"}, {"measurement": "Log kill 7 days", "setting": "[2]; Active Conc. 265.6 ppm", "result": 0, "unit": "log"}, {"measurement": "Log kill t0", "setting": "[2]; Active Conc. 265.6 ppm", "result": 0, "unit": "log"}, {"measurement": "Log kill 24 h", "setting": "[2]; Active Conc. 1428.6 ppm", "result": 0, "unit": "log"}, {"measurement": "Log kill 48 h", "setting": "[2]; Active Conc. 1428.6 ppm", "result": 0, "unit": "log"}, {"measurement": "Log kill 7 days", "setting": "[2]; Active Conc. 1428.6 ppm", "result": 2, "unit": "log"}, {"measurement": "Log kill t0", "setting": "[2]; Active Conc. 1428.6 ppm", "result": 0.5, "unit": "log"}, {"measurement": "Log kill 24 h", "setting": "[2]; Active Conc. 2000 ppm", "result": 1, "unit": "log"}, {"measurement": "Log kill 48 h", "setting": "[2]; Active Conc. 2000 ppm", "result": 1, "unit": "log"}, {"measurement": "Log kill 7 days", "setting": "[2]; Active Conc. 2000 ppm", "result": 6, "unit": "log"}, {"measurement": "Log kill t0", "setting": "[2]; Active Conc. 2000 ppm", "result": 1, "unit": "log"}]}
{"smiles": "Oc1ccccc1-c1ccccc1", "note": "[OPP, ortho-phenylphenol]", "values": [{"measurement": "Log kill 24 h", "setting": "[1]; Active Conc. 130.2 ppm", "result": 0, "unit": "log"}, {"measurement": "Log kill 48 h", "setting": "[1]; Active Conc. 130.2 ppm", "result": 1, "unit": "log"}, {"measurement": "Log kill 7 days", "setting": "[1]; Active Conc. 130.2 ppm", "result": 1.5, "unit": "log"}, {"measurement": "Log kill t0", "setting": "[1]; Active Conc. 130.2 ppm", "result": 0, "unit": "log"}, {"measurement": "Log kill 24 h", "setting": "[1]; Active Conc. 182.2 ppm", "result": 1.5, "unit": "log"}, {"measurement": "Log kill 48 h", "setting": "[1]; Active Conc. 182.2 ppm", "result": 2.5, "unit": "log"}, {"measurement": "Log kill 7 days", "setting": "[1]; Active Conc. 182.2 ppm", "result": 2.5, "unit": "log"}, {"measurement": "Log kill t0", "setting": "[1]; Active Conc. 182.2 ppm", "result": 1.5, "unit": "log"}, {"measurement": "Log kill 24 h", "setting": "[1]; Active Conc. 222.2 ppm", "result": 4.5, "unit": "log"}, {"measurement": "Log kill 48 h", "setting": "[1]; Active Conc. 222.2 ppm", "result": 3.5, "unit": "log"}, {"measurement": "Log kill 7 days", "setting": "[1]; Active Conc. 222.2 ppm", "result": 4, "unit": "log"}, {"measurement": "Log kill t0", "setting": "[1]; Active Conc. 222.2 ppm", "result": 4, "unit": "log"}, {"measurement": "Log kill 24 h", "setting": "[2]; Active Conc. 124 ppm", "result": 2, "unit": "log"}, {"measurement": "Log kill 48 h", "setting": "[2]; Active Conc. 124 ppm", "result": 2, "unit": "log"}, {"measurement": "Log kill 7 days", "setting": "[2]; Active Conc. 124 ppm", "result": 6, "unit": "log"}, {"measurement": "Log kill t0", "setting": "[2]; Active Conc. 124 ppm", "result": 0, "unit": "log"}, {"measurement": "Log kill 24 h", "setting": "[2]; Active Conc. 182.2 ppm", "result": 6, "unit": "log"}, {"measurement": "Log kill 48 h", "setting": "[2]; Active Conc. 182.2 ppm", "result": 6, "unit": "log"}, {"measurement": "Log kill 7 days", "setting": "[2]; Active Conc. 182.2 ppm", "result": 6, "unit": "log"}, {"measurement": "Log kill t0", "setting": "[2]; Active Conc. 182.2 ppm", "result": 1, "unit": "log"}, {"measurement": "Log kill 24 h", "setting": "[2]; Active Conc. 278.9 ppm", "result": 3.5, "unit": "log"}, {"measurement": "Log kill 48 h", "setting": "[2]; Active Conc. 278.9 ppm", "result": 3, "unit": "log"}, {"measurement": "Log kill 7 days", "setting": "[2]; Active Conc. 278.9 ppm", "result": 4, "unit": "log"}, {"measurement": "Log kill t0", "setting": "[2]; Active Conc. 278.9 ppm", "result": 0.5, "unit": "log"}, {"measurement": "Log kill 24 h", "setting": "[2]; Active Conc. 418.4 ppm", "result": 6, "unit": "log"}, {"measurement": "Log kill 48 h", "setting": "[2]; Active Conc. 418.4 ppm", "result": 6, "unit": "log"}, {"measurement": "Log kill 7 days", "setting": "[2]; Active Conc. 418.4 ppm", "result": 4, "unit": "log"}, {"measurement": "Log kill t0", "setting": "[2]; Active Conc. 418.4 ppm", "result": 6, "unit": "log"}]}
{"smiles": "Oc1cc(Cl)ccc1Oc1ccc(Cl)cc1Cl", "note": "[Triclosan, 2,4,4′-trichloro-2-hydroxyphenyl ether]", "values": [{"measurement": "contact time to achieve 3 log reduction in P. aeruginosa", "setting": "[1]; 800 ppm of Triclosan", "result": "greater than 48 hours"}, {"measurement": "Log kill 24 h", "setting": "[1]; Triclosan Conc. 105.3 ppm", "result": 1, "unit": "log"}, {"measurement": "Log kill 48 h", "setting": "[1]; Triclosan Conc. 105.3 ppm", "result": 1, "unit": "log"}, {"measurement": "Log kill 7 days", "setting": "[1]; Triclosan Conc. 105.3 ppm", "result": 2, "unit": "log"}, {"measurement": "Log kill t0", "setting": "[1]; Triclosan Conc. 105.3 ppm", "result": 0, "unit": "log"}, {"measurement": "Log kill 24 h", "setting": "[1]; Triclosan Conc. 355.6 ppm", "result": 1, "unit": "log"}, {"measurement": "Log kill 48 h", "setting": "[1]; Triclosan Conc. 355.6 ppm", "result": 2, "unit": "log"}, {"measurement": "Log kill 7 days", "setting": "[1]; Triclosan Conc. 355.6 ppm", "result": 2, "unit": "log"}, {"measurement": "Log kill t0", "setting": "[1]; Triclosan Conc. 355.6 ppm", "result": 1, "unit": "log"}, {"measurement": "Log kill 24 h", "setting": "[1]; Triclosan Conc. 800 ppm", "result": 1, "unit": "log"}, {"measurement": "Log kill 48 h", "setting": "[1]; Triclosan Conc. 800 ppm", "result": 2.5, "unit": "log"}, {"measurement": "Log kill 7 days", "setting": "[1]; Triclosan Conc. 800 ppm", "result": 4, "unit": "log"}, {"measurement": "Log kill t0", "setting": "[1]; Triclosan Conc. 800 ppm", "result": 1, "unit": "log"}]}
